We go through 9 molecules from PubChem BioAssay AID1745844 (Carcinogenic Potency Database (CPDB), 2022).

This data set deals with rodent lifetime carcinogenesis bioassay, tumor incidence TD50. The data set is described as follows: chronic cancer bioassays in animals – CPDB, compiled studies (AID 1745844).

The term TD50 denotes the 50% point of the dose-response relation for the toxic effect studied.

SMILES strings stand for the structures. Calls of active or inactive are those of the source. The rule behind the calls is not given here.

`C[C@@H]1Cc2c(Cl)cc(C(=O)N[C@@H](Cc3ccccc3)C(=O)O)c(O)c2C(=O)O1`: the TD50 is 109 mg/kg/day (mouse, strain B6C3F1, females, in feed, site: liver, lesion: hepatocellular adenoma, dosed 104 weeks, study length 104 weeks); 34.8 mg/kg/day (mouse, strain B6C3F1, females, in feed, site: liver, lesion: hepatocellular carcinoma, dosed 104 weeks, study length 104 weeks); 4.64 mg/kg/day (mouse, strain B6C3F1, males, in feed, site: kidney, lesion: adenoma, dosed 104 weeks, study length 104 weeks); 10.3 mg/kg/day (mouse, strain B6C3F1, males, in feed, site: kidney, lesion: carcinoma, dosed 104 weeks, study length 104 weeks); 3.53 mg/kg/day (mouse, strain B6C3F1, males, in feed, site: kidney, lesion: several types, types named in the paper, dosed 104 weeks, study length 104 weeks); 48.1 mg/kg/day (mouse, strain B6C3F1, males, in feed, site: liver, lesion: hepatocellular adenoma, dosed 104 weeks, study length 104 weeks). For the same molecule, the TD50 by setting is: (mouse, strain B6C3F1, males, in feed, site: liver, lesion: hepatocellular carcinoma, dosed 104 weeks, study length 104 weeks) 58.7 mg/kg/day; (rat, strain DA (from Hannover), males, by gavage, site: kidney, lesion: adenocarcinoma, dosed 110 weeks, study length 110 weeks) 0.368 mg/kg/day; (rat, strain DA (from Hannover), males, by gavage, site: urinary bladder, lesion: transitional-cell carcinoma, dosed 110 weeks, study length 110 weeks) 1.18 mg/kg/day; (rat, strain Fischer 344, females, by gavage, site: kidney + mammary gland, lesion: tubule adenoma + tubule carcinoma + fibroadenoma, dosed 103 weeks, study length 104 weeks) 0.386 mg/kg/day; (rat, strain Fischer 344, females, by gavage, site: kidney, lesion: tubule adenoma + tubule carcinoma, dosed 103 weeks, study length 104 weeks) 0.485 mg/kg/day; (rat, strain Fischer 344, females, by gavage, site: kidney, lesion: tubule adenoma, dosed 103 weeks, study length 104 weeks) 0.813 mg/kg/day. For the same molecule, the TD50 was 1.31 mg/kg/day (rat, strain Fischer 344, females, by gavage, site: kidney, lesion: tubule carcinoma, dosed 103 weeks, study length 104 weeks); 0.55 mg/kg/day (rat, strain Fischer 344, females, by gavage, site: mammary gland, lesion: fibroadenoma, dosed 103 weeks, study length 104 weeks); 0.0863 mg/kg/day (rat, strain Fischer 344, males, by gavage, site: any site (literature study), lesion: several types, types named in the paper, dosed 103 weeks, study length 104 weeks); 0.0579 mg/kg/day (rat, strain Fischer 344, males, by gavage, site: kidney, lesion: tubule adenoma + tubule carcinoma + tubule epithelium adenoma + tubular-cell carcinoma, bilateral, dosed 103 weeks, study length 104 weeks); 0.241 mg/kg/day (rat, strain Fischer 344, males, by gavage, site: kidney, lesion: tubule adenoma + tubule epithelium adenoma, dosed 103 weeks, study length 104 weeks); 0.0756 mg/kg/day (rat, strain Fischer 344, males, by gavage, site: kidney, lesion: tubule carcinoma + tubular-cell carcinoma, bilateral, dosed 103 weeks, study length 104 weeks). The TD50 by setting is: (rat, strain Fischer 344, males, by gavage, site: liver, lesion: hepatocellular adenoma + hepatocellular carcinoma + neoplastic nodule, dosed 103 weeks, study length 104 weeks) 2.5 mg/kg/day; (rat, strain Lewis, females, by gavage, site: kidney, lesion: adenocarcinoma, dosed 110 weeks, study length 110 weeks) 2.56 mg/kg/day; (rat, strain Lewis, males, by gavage, site: kidney, lesion: adenocarcinoma, dosed 110 weeks, study length 110 weeks) 1.25 mg/kg/day. In addition, the carcinogen call was “negative (inactive)” (rat, strain DA (from Hannover), females, by gavage, site: kidney, lesion: one or several types, types not named, dosed 110 weeks, study length 110 weeks) and “negative (inactive)” (rat, strain Wistar, both sexes, by gavage, site: any site (literature study), lesion: one or several types, types not named, dosed 50 weeks, study length 110 weeks).

`Cc1cc(C)nc(-c2ccc([N+](=O)[O-])o2)n1`: for the setting “rat, strain Sprague-Dawley, females, in feed, site: forestomach, lesion: squamous-cell carcinoma, dosed 42 weeks, study length 59 weeks”, the carcinogen call is “positive”. The TD50 was 3.43 mg/kg/day (rat, strain Sprague-Dawley, females, in feed, site: intestine, lesion: hemangioendothelial sarcoma, dosed 42 weeks, study length 59 weeks); 2.61 mg/kg/day (rat, strain Sprague-Dawley, females, in feed, site: intestine, lesion: sarcoma, dosed 42 weeks, study length 59 weeks); 45.5 mg/kg/day (rat, strain Sprague-Dawley, females, in feed, site: kidney, lesion: transitional-cell carcinoma, dosed 42 weeks, study length 59 weeks); 6.45 mg/kg/day (rat, strain Sprague-Dawley, females, in feed, site: mammary gland, lesion: adenocarcinoma, dosed 42 weeks, study length 59 weeks).

Regarding `O=C1NCCN1/N=C/c1ccc([N+](=O)[O-])o1`, the TD50 runs as follows: (rat, strain Sprague-Dawley, females, in feed, site: all sites, lesion: lymphoblastic lymphoma, dosed 46 weeks, study length 66 weeks) 82 mg/kg/day; (rat, strain Sprague-Dawley, females, in feed, site: mammary gland, lesion: adenocarcinoma, dosed 46 weeks, study length 66 weeks) 5.26 mg/kg/day.

Turning to `CN1C(C(=O)Nc2ccccn2)=C(O)c2sc(Cl)cc2S1(=O)=O`, the carcinogen call is “negative (inactive)” (rat, strain Sprague-Dawley, females, by gavage, site: any site (literature study), lesion: several types, types named in the paper, dosed 104 weeks, study length 104 weeks); “negative (inactive)” (rat, strain Sprague-Dawley, females, by gavage, site: kidney, lesion: one or several types, types not named, dosed 52 weeks, study length 52 weeks); “negative (inactive)” (rat, strain Sprague-Dawley, males, by gavage, site: any site (literature study), lesion: several types, types named in the paper, dosed 104 weeks, study length 104 weeks); “negative (inactive)” (rat, strain Sprague-Dawley, males, by gavage, site: kidney, lesion: one or several types, types not named, dosed 52 weeks, study length 52 weeks); “negative (inactive)” (rat, strain Sprague-Dawley, males, by gavage, site: liver, lesion: several types, types named in the paper, dosed 104 weeks, study length 104 weeks). In addition, the TD50 (rat, strain Sprague-Dawley, females, by gavage, site: liver, lesion: hepatocellular adenoma, dosed 104 weeks, study length 104 weeks) is 13.2 mg/kg/day (inactive).

For `CC1CC(=O)O1` (stereo not drawn), the TD50 (rat, strain Eastern Sprague-Dawley, females, by gavage, site: forestomach, lesion: squamous-cell carcinoma, dosed 70 weeks, study length 70 weeks) is 13.8 mg/kg/day.

Consider `CC(O)CO` (stereo not drawn), for which the carcinogen call runs as follows: (rat, strain Charles River CD (Sprague-Dawley), females, in feed, site: liver, lesion: nodular hyperplasia, dosed 104 weeks, study length 104 weeks) “negative (inactive)”; (rat, strain Charles River CD (Sprague-Dawley), males, in feed, site: liver, lesion: nodular hyperplasia, dosed 104 weeks, study length 104 weeks) “negative (inactive)”.

For `CN(N=O)c1ccc(N=O)cc1`, the TD50 (rat, strain CB, males, i.p., site: liver, lesion: hepatoma, dosed 26 weeks, study length 86 weeks) is 1.5 mg/kg/day (inactive) and the TD50 (rat, strain CB, males, i.p., site: peritoneal cavity, lesion: several types, types named in the paper, dosed 26 weeks, study length 86 weeks) is 1.3 mg/kg/day.

As for `OC[C@H]1O[C@@H]2O[C@H]3[C@H](O)[C@@H](O)[C@@H](O[C@H]4[C@H](O)[C@@H](O)[C@@H](O[C@H]5[C@H](O)[C@@H](O)[C@@H](O[C@H]6[C@H](O)[C@@H](O)[C@@H](O[C@H]7[C@H](O)[C@@H](O)[C@@H](O[C@H]8[C@H](O)[C@@H](O)[C@@H](O[C@H]1[C@H](O)[C@H]2O)O[C@@H]8CO)O[C@@H]7CO)O[C@@H]6CO)O[C@@H]5CO)O[C@@H]4CO)O[C@@H]3CO`, the carcinogen call was “negative (inactive)” (mouse, strain Charles River CD1, females, in feed, site: lung, lesion: several types, types named in the paper, dosed 104 weeks, study length 104 weeks); “negative (inactive)” (rat, strain Charles River CD (Sprague-Dawley), females, in feed, site: liver, lesion: one or several types, types not named, dosed 52 weeks, study length 52 weeks); “negative (inactive)” (rat, strain Charles River CD (Sprague-Dawley), males, in feed, site: liver, lesion: one or several types, types not named, dosed 52 weeks, study length 52 weeks); “negative (inactive)” (rat, strain F344/DuCrj, females, in feed, site: liver, lesion: hepatocellular adenoma, dosed 104 weeks, study length 109 weeks); “negative (inactive)” (rat, strain F344/DuCrj, males, in feed, site: any site (literature study), lesion: several types, types named in the paper, dosed 104 weeks, study length 109 weeks); “negative (inactive)” (rat, strain F344/DuCrj, males, in feed, site: liver, lesion: hepatocellular adenoma, dosed 104 weeks, study length 109 weeks). The TD50 is, setting by setting: (mouse, strain Charles River CD1, males, in feed, site: lung, lesion: several types, types named in the paper, dosed 93 weeks, study length 93 weeks) 728 mg/kg/day (inactive); (rat, strain F344/DuCrj, females, in feed, site: any site (literature study), lesion: several types, types named in the paper, dosed 104 weeks, study length 109 weeks) 85900 mg/kg/day (inactive); (rat, strain Fischer 344, females, in feed, site: uterus, lesion: adenocarcinoma, dosed 129 weeks, study length 129 weeks) 22700 mg/kg/day (inactive); (rat, strain Fischer 344, males, in feed, site: testis, lesion: interstitial-cell tumor, dosed 122 weeks, study length 122 weeks) 157 mg/kg/day (inactive).

Consider `CC(=O)C1C(=O)C=C(C)OC1=O` (stereo not drawn), for which the carcinogen call is “negative (inactive)” (mouse, strain B6AKF1, females, oral dosing, site: any site (literature study), lesion: several types, types named in the paper, dosed 76 weeks, study length 76 weeks); “negative (inactive)” (mouse, strain B6AKF1, females, oral dosing, site: liver, lesion: hepatoma, dosed 76 weeks, study length 76 weeks); “negative (inactive)” (mouse, strain B6AKF1, females, oral dosing, site: lung, lesion: adenoma, dosed 76 weeks, study length 76 weeks); “negative (inactive)” (mouse, strain B6AKF1, males, oral dosing, site: any site (literature study), lesion: several types, types named in the paper, dosed 76 weeks, study length 76 weeks); “negative (inactive)” (mouse, strain B6AKF1, males, oral dosing, site: liver, lesion: hepatoma, dosed 76 weeks, study length 76 weeks); “negative (inactive)” (mouse, strain B6AKF1, males, oral dosing, site: lung, lesion: adenoma, dosed 76 weeks, study length 76 weeks). In addition, the carcinogen call (mouse, strain B6C3F1, females, oral dosing, site: any site (literature study), lesion: one or several types, types not named, dosed 76 weeks, study length 76 weeks) was “negative (inactive)”; the carcinogen call (mouse, strain B6C3F1, females, oral dosing, site: liver, lesion: hepatoma, dosed 76 weeks, study length 76 weeks) is “negative (inactive)”; the carcinogen call (mouse, strain B6C3F1, females, oral dosing, site: lung, lesion: several types, types named in the paper, dosed 76 weeks, study length 76 weeks) was “negative (inactive)”; the carcinogen call (mouse, strain B6C3F1, males, oral dosing, site: liver, lesion: hepatoma, dosed 76 weeks, study length 76 weeks) is “negative (inactive)”; the carcinogen call (mouse, strain B6C3F1, males, oral dosing, site: lung, lesion: several types, types named in the paper, dosed 76 weeks, study length 76 weeks) was “negative (inactive)”. For the same molecule, the TD50 (mouse, strain B6C3F1, males, oral dosing, site: any site (literature study), lesion: several types, types named in the paper, dosed 76 weeks, study length 76 weeks) was 202 mg/kg/day (inactive).
